In PubChem BioAssay AID1918995 (Molecular Pharmacology Branch, DTP, NCI, 2023):

Tested on: 324938-238-R-J1-PDC complex spheroid growth, % test/control
Assay: Anticancer human tumor 324938-238-R-J1-PDC patient-derived bladder carcinoma cell line growth inhibition [AhR]
Conditions: for IC50: curve of first compound; for viability, T/C: stronger effect = lower value; active means viability on the fitted dose curve at most 10% of control; inactive means the rest
From the text: Multicellular complex tumor spheroid response to aryl hydrocarbon receptor antagonists in combination with a variety of drugs and investigational agents in selected tumor cell lines
The current study was undertaken to assess response to aryl hydrocarbon receptor antagonists in combination with standard-of-care drugs and investigational agents in solid tumor complex spheroid models. Complex spheroids include a stromal component modeled by human endothelial cells (HUVEC) and fibroblasts modeled by human mesenchymal stem cells (MSCs). The concentration ranges selected for each drug and investigational agent were based upon clinically achievable concentrations if the clinical Cmax of the agent was known.
Compounds. The drugs and investigational agents: BAY 2416964 (NSC825713), GNF351 (NSC835774), CH-223191 (NSC835775), CPI-455 (NSC825282), aza-TdCyd (NSC777586), decitabine (NSC127716), belinostat (NSC758774), entinostat (NSC756642), pevonedistat (NSC761192), tazemetostat (NSC777109), talazoparib (NSC765396), olaparib (NSC753686), selinexor (NSC780203), nedisertib (M3814, NSC802822), bortezomib (NSC756655), venetoclax (NSC766270), doxorubicin (NSC123127), elimusertib (BAY189344, NSC800525), ceralasertib (AZD6738, NSC777638), TAK-243 (NSC785004), alisertib (NSC759677), etoposide (NSC141540), topotecan (NSC609699), eribulin (NSC707389), gemcitabine (NSC613327), carboplatin (NSC241240), cisplatin (NSC119875), and SN-38 (NSC673596) were obtained from the National Cancer Institute (NCI) Developmental Therapeutics Program Chemical Repository (32). The FDA-approved anticancer drug set is available from the Developmental Therapeutics Program at https://dtp.cancer.gov/organization/dscb/obtaining/available plates.htm. […] The stock solutions were prepared in dimethyl sulfoxide (DMSO, Sigma-Aldrich, St. Louis, MO, cat. D2650), except for the platinum compounds which were prepared in saline (Quality Biological, Gaithersburg, MD, cat. 114-055-101), at 800-fold the tested concentration and stored at -70 degrees C prior to their use. All drugs and investigational agents were tested over a range starting from a high concentration at or near the clinical Cmax and decreasing in half-log increments. If the clinical Cmax for an agent had not been determined, the highest concentration tested was 10 microM (Table 1).
Cell Culture. All cells were maintained in an incubator at 37 degrees C and 5% CO2 with 95% humidity. The PDC lines were cultured according to standard operating procedures established by the NCI PDMR (https://pdmr.cancer.gov). Briefly, all PDCs were thawed and cultured in Matrigel-coated flasks prepared with a working solution of 1X Ham's F-12 nutrient mix, without supplementation (Invitrogen, Waltham, MA, cat. 11765054), 100 U/mL penicillin-streptomycin (Invitrogen, cat. 15140122), and 2.5% Matrigel (Corning Inc., Corning, NY, cat. 354248) for the first three passages. All PDCs were cultured in complete DMEM/F-12 media containing advanced DMEM/F-12 (Invitrogen, cat. 12634028), 4.9% defined fetal bovine serum, heat inactivated (HyClone Laboratories Inc., Logan, UT, cat. SH30070.03HI), 389 ng/mL hydrocortisone (Sigma-Aldrich, cat. H4001), 9.7 ng/mL human EGF recombinant protein (Invitrogen, cat. PHG0313), 23.4 microg/mL adenine (Sigma-Aldrich, cat. A2786), 97.3 U/mL penicillin-streptomycin (Invitrogen, cat. 15140122), 1.9 mM L-glutamine (Invitrogen, cat. 25030081), and 9.7 microM Y-27632 dihydrochloride (Tocris Bioscience, Bristol, United Kingdom, cat. 1254). The PDCs were cultured in complete DMEM/F12 media without 10 microM Y-27632 dihydrochloride for at least two passages prior to the screen. The established cell lines NCI-H1341 and […] were cultured in DMEM/F-12, HEPES (Invitrogen, cat. 11330032), 5% defined fetal bovine serum (HyClone Laboratories Inc., cat. SH30070.03), ITS premix universal culture supplement [insulin (5 microg/mL), transferrin (5 microg/mL), and selenious acid (5 ng/mL)] […]
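Further: spheroids exposed to agents for seven days before viability read.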

CC(C)CC(NC(=O)C(Cc1ccccc1)NC(=O)c1cnccn1)B(O)O (stereo not given) + Cc1cncc(-c2nc(NCCc3c[nH]c4ccccc34)c3ncn(C(C)C)c3n2)c1
inactive: viability, T/C (second compound 0.1 µM, first compound 0.000949 µM) 140% | viability, T/C (second compound 0.1 µM, first compound 0.003 µM) 82.9% | viability, T/C (second compound 0.316 µM, first compound 0.000949 µM) 123% | viability, T/C (second compound 0.316 µM, first compound 0.003 µM) 69.4% | viability, T/C (second compound 1 µM, first compound 0.000949 µM) 107% | viability, T/C (second compound 1 µM, first compound 0.003 µM) 70.6% | viability, T/C (second compound 3.16 µM, first compound 0.000949 µM) 109% | viability, T/C (second compound 3.16 µM, first compound 0.003 µM) 74.3%
< 0.949 nM: IC50 (second compound 10 µM)
4.41 nM: IC50 (second compound 3.16 µM)
4.21 nM: IC50 (second compound 1 µM)
4.75 nM: IC50 (second compound 0.1 µM)
4.16 nM: IC50 (second compound 0.316 µM)
active: viability, T/C (second compound 0.1 µM, first compound 0.00949 µM) 0.38% | viability, T/C (second compound 0.1 µM, first compound 0.03 µM) 0.6% | viability, T/C (second compound 0.1 µM, first compound 0.0949 µM) 0.37% | viability, T/C (second compound 0.1 µM, first compound 0.3 µM) 0.39% | viability, T/C (second compound 0.316 µM, first compound 0.00949 µM) 0.83% | viability, T/C (second compound 0.316 µM, first compound 0.03 µM) 2.26% | viability, T/C (second compound 0.316 µM, first compound 0.0949 µM) 1.05% | viability, T/C (second compound 0.316 µM, first compound 0.3 µM) 0.73% | viability, T/C (second compound 1 µM, first compound 0.00949 µM) 0.67% | viability, T/C (second compound 1 µM, first compound 0.03 µM) 0.27% | viability, T/C (second compound 1 µM, first compound 0.0949 µM) 0.57% | viability, T/C (second compound 1 µM, first compound 0.3 µM) 0.35% | viability, T/C (second compound 3.16 µM, first compound 0.00949 µM) 1.45% | viability, T/C (second compound 3.16 µM, first compound 0.03 µM) 0.48% | viability, T/C (second compound 3.16 µM, first compound 0.0949 µM) 0.28% | viability, T/C (second compound 3.16 µM, first compound 0.3 µM) 0.4% | viability, T/C (second compound 10 µM, first compound 0.000949 µM) 5.75% | viability, T/C (second compound 10 µM, first compound 0.003 µM) 2.91% | viability, T/C (second compound 10 µM, first compound 0.00949 µM) 1.36% | viability, T/C (second compound 10 µM, first compound 0.03 µM) 0.48% | viability, T/C (second compound 10 µM, first compound 0.0949 µM) 0.49% | viability, T/C (second compound 10 µM, first compound 0.3 µM) 0.42%

Cn1ncnc1C1c2n[nH]c(=O)c3cc(F)cc(c23)NC1c1ccc(F)cc1 (stereo not given) + CC(CO)NC(=O)c1cc(-c2ccc(Cl)cc2)nn(-c2cnn(C)c2)c1=O
60.6 nM: IC50 (second compound 3.16 µM)
> 100 nM: IC50 (second compound 0.1 µM) | IC50 (second compound 1 µM)
18.7 nM: IC50 (second compound 10 µM)
91.9 nM: IC50 (second compound 0.316 µM)
inactive: viability, T/C (second compound 0.1 µM, first compound 0.000316 µM) 93.4% | viability, T/C (second compound 0.1 µM, first compound 0.001 µM) 107% | viability, T/C (second compound 0.1 µM, first compound 0.00316 µM) 87.1% | viability, T/C (second compound 0.1 µM, first compound 0.01 µM) 76.3% | viability, T/C (second compound 0.1 µM, first compound 0.0316 µM) 61.4% | viability, T/C (second compound 0.1 µM, first compound 0.1 µM) 58.5% | viability, T/C (second compound 0.316 µM, first compound 0.000316 µM) 83.5% | viability, T/C (second compound 0.316 µM, first compound 0.001 µM) 92.8% | viability, T/C (second compound 0.316 µM, first compound 0.00316 µM) 92.7% | viability, T/C (second compound 0.316 µM, first compound 0.01 µM) 81.7% | viability, T/C (second compound 0.316 µM, first compound 0.0316 µM) 62.9% | viability, T/C (second compound 0.316 µM, first compound 0.1 µM) 48.9% | viability, T/C (second compound 1 µM, first compound 0.000316 µM) 76.8% | viability, T/C (second compound 1 µM, first compound 0.001 µM) 82.2% | viability, T/C (second compound 1 µM, first compound 0.00316 µM) 79.2% | viability, T/C (second compound 1 µM, first compound 0.01 µM) 69.6% | viability, T/C (second compound 1 µM, first compound 0.0316 µM) 61% | viability, T/C (second compound 1 µM, first compound 0.1 µM) 53.5% | viability, T/C (second compound 3.16 µM, first compound 0.000316 µM) 67.6% | viability, T/C (second compound 3.16 µM, first compound 0.001 µM) 71.9% | viability, T/C (second compound 3.16 µM, first compound 0.00316 µM) 71% | viability, T/C (second compound 3.16 µM, first compound 0.01 µM) 61.5% | viability, T/C (second compound 3.16 µM, first compound 0.0316 µM) 52.1% | viability, T/C (second compound 3.16 µM, first compound 0.1 µM) 47.3% | viability, T/C (second compound 10 µM, first compound 0.000316 µM) 67.3% | viability, T/C (second compound 10 µM, first compound 0.001 µM) 65.8% | viability, T/C (second compound 10 µM, first compound 0.00316 µM) 60.7% | viability, T/C (second compound 10 µM, first compound 0.01 µM) 53% | viability, T/C (second compound 10 µM, first compound 0.0316 µM) 44.5% | viability, T/C (second compound 10 µM, first compound 0.1 µM) 43%
